From patent US20240174690A1, “ANNULATED 2-AMINO-3-CYANO THIOPHENES AND DERIVATIVES FOR THE TREATMENT OF CANCER” (BOEHRINGER INGELHEIM INTERNATIONAL GMBH, priority 2021, published 2024)
Read-outs that look alike come from different tables or passages of the source.

Tests used:
[1] = Plasma protein binding assay (PPB), equilibrium dialysis, 10% FCS in PBS; format: in vitro ADME; settings: for fraction unbound: bovine, read-out: PPB 10% FCS (% fu)
Method in brief: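 Equilibrium dialysis (5-10 kg/mol cut-off membrane) of 1-10 μmol/L test compound in 10% FCS/PBS against PBS with or without dextran, 3-5 h at 37° C. Compound in each chamber quantified by LC-MS after protein precipitation; fu calculated from Cserum and Cbuffer.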

[2] = Metabolic (microsomal) stability assay, human liver microsomes (HLM); format: in vitro ADME; settings: predicted clearance as percent of liver blood flow, 1 μM
Method in brief: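 LC-MS/MS tracked parent disappearance at 0, 5, 15, 30 and 60 min in NADPH-initiated incubations with 1 mg/mL human microsomal protein and 1 μM compound at 37°C, pH 7.5. First-order fits gave intrinsic clearance, which was scaled up and reported as % QH. NADPH-free controls were also run.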

NCI-H358 cells = test: NCI-H358 CTG proliferation assay (120 h) (NSCLC, G12C); format: cell-based, human; settings: Homo sapiens, assay 2, CTG, read-out: H358 (assay 2) IC50
Method in brief: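 NCI-H358 cells (KRAS G12C) were seeded at 2000/well (assay 1) or 200/well (assay 2) in RPMI-1640 + 10% FCS and dosed with a logarithmic series, DMSO-normalized. After 120 h, viability was read by CellTiter-Glo luminescence as percent of DMSO control, with a T0 read at dosing. IC50 came from a four-parameter fit.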

NCI-H2122 cells = test: NCI-H2122 CTG proliferation assay (120 h) (NSCLC, G12C); format: cell-based
Method in brief: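 NCI-H2122 cells (KRAS G12C NSCLC), 200 per well in RPMI with 10% FCS, were dosed with compound on day 1 and incubated 120 h at 37 °C. Viability was read by CellTiter-Glo luminescence as percent of DMSO control, and IC50 was fitted with a four-parameter model.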

| Compound | fraction unbound [1] | HLM QH [2] | IC50 (NCI-H358 cells) | IC50 (NCI-H2122 cells; Homo sapiens) | PPB 10% FCS (% fu) ([1]; fraction unbound) | IC50 (NCI-H2122 cells) |
| --- | --- | --- | --- | --- | --- | --- |
| CO[C@H]1CCN(C)[C@@H]1[C@H](C)Oc1cc(-n2ccc(C(=O)N[C@H]3CCOC3)n2)nc(-c2onc3c2CCC[C@@]32CCCc3sc(N)c(C#N)c32)n1 [I-54] | 0.09 | 52% | 4 nM |  |  |  |
| CO[C@H]1CCN(C)[C@@H]1[C@H](C)Oc1cc(-n2ccc(CC(=O)NC(C)C)n2)nc(-c2onc3c2CCC[C@@]32CCCc3sc(N)c(C#N)c32)n1 [I-48] | 0.12 | 51% | 4 nM |  |  |  |
| C[C@H](Oc1nc(-c2onc3c2CCC[C@@]32CCCc3sc(N)c(C#N)c32)cc(N2CCN(C)C3(CC3)C2)n1)[C@@H]1CCCN1C [I-40] | 0.51 | 42% |  |  |  |  |
| C[C@H](Oc1cc(N2CCN(C)C3(COC3)C2)nc(-c2onc3c2CCC[C@@]32CCCc3sc(N)c(C#N)c32)n1)[C@@H]1C[C@@H](F)CN1C [I-37] | 0.26 | 51% | 3890 nM |  |  |  |
| C[C@H](Oc1cc(-n2ccc(C(=O)N(C)C3COC3)n2)nc(-c2onc3c2CCC[C@@]32CCCc3sc(N)c(C#N)c32)n1)[C@@H]1CCCN1C [I-60] | 0.1 | <24% | 4 nM |  |  |  |
| C[C@H](Oc1nc(-c2onc3c2CCC[C@@]32CCCc3sc(N)c(C#N)c32)cc(N2CCNC3(CC3)C2)n1)[C@@H]1CCCN1C [I-2] | 0.69 | 44% |  |  |  |  |
| C[C@H](Oc1cc(-c2ccn(C)n2)nc(-c2onc3c2CCC[C@@]32CCCc3sc(N)c(C#N)c32)n1)[C@@H]1CCCN1C [I-21] |  | 44% |  |  | 83 % fu | 1430 nM |
| C[C@H]1CN(C)CCCN1c1nc(-c2onc3c2CCC[C@@]32CCCc3sc(N)c(C#N)c32)cc(N2CCN(C)C3(CC3)C2)n1 [I-42] |  | 42% |  |  |  |  |
| C[C@H](Oc1cc(-c2ccn3ncnc3c2)nc(-c2onc3c2CCC[C@@]32CCCc3sc(N)c(C#N)c32)n1)[C@@H]1CCCN1C [I-33] | 0.31 | <24% |  | 1420 nM |  |  |
| C[C@H](Oc1cc(N2CC3CCC(C2)N3)nc(-c2noc3c2CCC[C@@]32CCCc3sc(N)c(C#N)c32)n1)[C@@H]1CCCN1C [II-34] | 0.37 | <24% |  | 9010 nM |  |  |
| C[C@H](Oc1cc(-n2ccc(C(=O)N[C@@H]3CCOC3)n2)nc(-c2onc3c2CCC[C@@]32CCCc3sc(N)c(C#N)c32)n1)[C@@H]1CCCN1C [I-56] | 0.32 | 25% | 2 nM |  |  |  |
| CO[C@H]1CCN(C)[C@@H]1[C@H](C)Oc1cc(-n2ccc(C(=O)N[C@@H]3CCOC3)n2)nc(-c2onc3c2CCC[C@@]32CCCc3sc(N)c(C#N)c32)n1 [I-53] | 0.05 | 56% | 1 nM |  |  |  |
| CO[C@H]1CCN(C)[C@@H]1[C@H](C)Oc1cc(N2CCNC3(CC3)C2)nc(-c2onc3c2CCC[C@@]32CCCc3sc(N)c(C#N)c32)n1 [I-49] | 0.15 | 40% | 145 nM |  |  |  |
| COCCNC(=O)c1ccn(-c2cc(O[C@@H](C)[C@@H]3CCCN3C)nc(-c3onc4c3CCC[C@@]43CCCc4sc(N)c(C#N)c43)n2)n1 [I-58] | 0.28 | 34% | 5 nM |  |  |  |
| COCCNC(=O)c1ccn(-c2cc(O[C@@H](C)[C@@H]3[C@@H](OC)CCN3C)nc(-c3onc4c3CCC[C@@]43CCCc4sc(N)c(C#N)c43)n2)n1 [I-55] | 0.06 | 56% | 5 nM |  |  |  |
| C[C@H](NC(=O)c1ccn(-c2cc(O[C@@H](C)[C@@H]3CCCN3C)nc(-c3onc4c3CCC[C@@]43CCCc4sc(N)c(C#N)c43)n2)n1)c1ccccn1 [I-59] | 0.04 | <24% | 2 nM |  |  |  |
| CO[C@@H]1C[C@@H]([C@H](C)Oc2cc(N3CCN(C)C4(CC4)C3)nc(-c3onc4c3CCC[C@@]43CCCc4sc(N)c(C#N)c43)n2)N(C)C1 [I-50] | 0.14 | 44% | 733 nM |  |  |  |
| C[C@H](Oc1cc(-n2ccc(C(=O)N[C@H]3CCOC3)n2)nc(-c2onc3c2CCC[C@@]32CCCc3sc(N)c(C#N)c32)n1)[C@@H]1CCCN1C [I-57] |  |  | 6 nM |  |  |  |
| C[C@H](Oc1cc(N2CCN(C)C3(CC3)C2)nc(-c2onc3c2CCC[C@@]32CCCc3sc(N)c(C#N)c32)n1)[C@@H]1C[C@@H](F)CN1C [I-39] | 0.07 | 39% | 1450 nM |  |  |  |
| C[C@H](Oc1cc(N2CCN(C)C3(CC3)C2)nc(-c2onc3c2CCC[C@@]32CCCc3sc(N)c(C#N)c32)n1)[C@@H]1CCCN1C [I-41] |  | <24% |  | 3560 nM |  |  |
| C[C@H](Oc1cc(N2CCNC3(CC3)C2)nc(-c2onc3c2CCC[C@@]32CCCc3sc(N)c(C#N)c32)n1)[C@@H]1C[C@@H](F)CN1C [I-45] | 0.14 | 45% | 470 nM |  |  |  |
| C[C@H](O)Cn1ccc(-c2cc(O[C@@H](C)[C@@H]3CCCN3C)nc(-c3onc4c3CCC[C@@]43CCCc4sc(N)c(C#N)c43)n2)n1 [I-31] | 0.53 | <24% | 266 nM |  |  |  |

Now from value to molecule, other results behind:

| fraction unbound [1] | HLM QH [2] | IC50 (NCI-H358 cells) | IC50 (NCI-H2122 cells; Homo sapiens) | Compound | PPB 10% FCS (% fu) ([1]; fraction unbound) | IC50 (NCI-H2122 cells) |
| --- | --- | --- | --- | --- | --- | --- |
| 0.43 | <24% |  | 3500 nM | C[C@H](Oc1cc(N2CC(N(C)C)C2)nc(-c2noc3c2CCC[C@@]32CCCc3sc(N)c(C#N)c32)n1)[C@@H]1CCCN1C [II-7] |  |  |
| 0.09 | 63% | 134 nM |  | C[C@@H]1CN(c2cc(O[C@@H](C)[C@@H]3C[C@@H](F)CN3C)nc(-c3noc4c3CCC[C@@]43CCCc4sc(N)c(C#N)c43)n2)CC2(CC2)N1 [II-17] |  |  |
| 0.17 | 52% |  | 3600 nM | C[C@H](Oc1cc(N2CCN(C)CC2)nc(-c2noc3c2CCC[C@@]32CCCc3sc(N)c(C#N)c32)n1)[C@@H]1CCCN1[C@@H]1CCOC1 [II-39] |  |  |
| 0.57 | <24% |  | 3480 nM | C[C@@H]1CN(c2cc(O[C@@H](C)[C@@H]3CCCN3C)nc(-c3noc4c3CCC[C@@]43CCCc4sc(N)c(C#N)c43)n2)C[C@H](C)N1 [II-36] |  |  |
| 0.64 | <24% |  | 2420 nM | C[C@H](Oc1cc(N2CC[C@H](N(C)C)C2)nc(-c2noc3c2CCC[C@@]32CCCc3sc(N)c(C#N)c32)n1)[C@@H]1C[C@@H](F)CN1C [II-15] |  |  |
| 0.2 | <24% |  | 1390 nM | C[C@H](Oc1cc(N2CC[C@H](N3CCCCC3)C2)nc(-c2noc3c2CCC[C@@]32CCCc3sc(N)c(C#N)c32)n1)[C@@H]1CCCN1C [II-12] |  |  |
| 0.16 | <24% |  | 3530 nM | C[C@H]1CN(C)CCCN1c1cc(N2CC[C@H](N(C)C)C2)nc(-c2noc3c2CCC[C@@]32CCCc3sc(N)c(C#N)c32)n1 [II-16] |  |  |
| 0.06 | 40% | 136 nM |  | [2H]C([2H])([2H])N1C[C@H](F)C[C@H]1[C@H](C)Oc1cc(N2CCN(C)C3(CC3)C2)nc(-c2noc3c2CCC[C@@]32CCCc3sc(N)c(C#N)c32)n1 [II-209] |  |  |
| 0.15 | 48% | 99 nM |  | [2H]C([2H])([2H])N1C[C@H](F)C[C@H]1[C@H](C)Oc1cc(N2CCNC3(CC3)C2)nc(-c2noc3c2CCC[C@@]32CCCc3sc(N)c(C#N)c32)n1 [II-208] |  |  |
| 0.31 | <24% |  | 3300 nM | C[C@H](Oc1cc(N2CCNC(C)(C)C2)nc(-c2noc3c2CCC[C@@]32CCCc3sc(N)c(C#N)c32)n1)[C@@H]1CCCN1C [II-32] |  |  |
| 0.64 | <24% |  | 3550 nM | C[C@H]1CN(C)CCCN1c1cc(N2CCN(C)CC2)nc(-c2noc3c2CCC[C@@]32CCCc3sc(N)c(C#N)c32)n1 [II-30] |  |  |
| 0.11 | 58% | 160 nM |  | C[C@H](Oc1cc(N2C[C@H](C)NC3(CC3)C2)nc(-c2noc3c2CCC[C@@]32CCCc3sc(N)c(C#N)c32)n1)[C@@H]1C[C@@H](F)CN1C [II-18] |  |  |
| 0.68 | <24% |  | 4120 nM | C[C@H](Oc1cc(N2C[C@H]3CN(C)C[C@H]3C2)nc(-c2noc3c2CCC[C@@]32CCCc3sc(N)c(C#N)c32)n1)[C@@H]1CCCN1C [II-33] |  |  |
| 0.16 | <24% |  | 1390 nM | C[C@H](Oc1cc(N2CC[C@H](N3CCCC3)C2)nc(-c2noc3c2CCC[C@@]32CCCc3sc(N)c(C#N)c32)n1)[C@@H]1CCCN1C [II-14] |  |  |
| 0.89 | <24% |  | 3510 nM | C[C@H](Oc1cc(N2C[C@@H](N(C)C)[C@@H](F)C2)nc(-c2noc3c2CCC[C@@]32CCCc3sc(N)c(C#N)c32)n1)[C@@H]1CCCN1C [II-11] |  |  |
| 0.17 | <24% |  | 933 nM | C[C@H](Oc1cc(N2CCN(CCO)CC2)nc(-c2noc3c2CCC[C@@]32CCCc3sc(N)c(C#N)c32)n1)[C@@H]1CCCN1C [II-8] |  |  |
|  | 27% |  | 900 nM | C[C@H](Oc1nc(-c2noc3c2CCC[C@@]32CCCc3sc(N)c(C#N)c32)cc(N2C[C@H](C)N[C@@H](C)C2)n1)[C@@H]1CCCN1C [II-46] |  |  |
